One assay deals with Erwinia sp. As to the kind of experiment: Kirby-Bauer disk diffusion test, bacterial pathogens (inhibition zones, halo effect). The conditions noted are these: Nutrient Agar, tank-mixes. (In general: A growth-free zone around the sample is the usual read-out of agar diffusion tests.)
In assay [1] the test system is Sclerotinia sclerotiorum. The assay can be described thus: Field trial oilseed rape, efficacy against Sclerotinia sclerotiorum. The conditions noted are these: field conditions, tank-mix, control (no treatment) 6.28. In kind it is in vivo. How it is done: (§1) The rates of application (use) of the composition of the present invention (MFA) vary according to type of use, type of crop, the specific active ingredient in the combination, but is such that the active ingredient in the combination is an effective amount to provide the desired action (such as disease control). The application rate of the composition for a given set of conditions can readily be determined by trials.
(§2) Field trials were conducted in Poland according to approved EPPO guidelines: PP 1/135(4), PP 1/152(4), PP 1/181(4) (general), PP 1/1(4) (sugar beet), PP 1/28 (3), PP 1/26(4) (winter wheat), PP 1/78(4) (oilseed), PP1/263 (1), PP1/16 (3) (strawberry), PP 1/2 (5), PP 1/263 (1) (potato). The spray volumes were in line with farmers' practice, varying between 200-300 l/ha. The applications were processed as per the EPPO guideline specific for each crop.

A further assay deals with Phoma lingam. The assay can be described thus: Field trial oilseed rape, efficacy against Phoma lingam. Conditions: field conditions, tank-mix, control (no treatment) 4.18. In kind it is in vivo. How it is done:
as §1, §2

A further assay has as its system oilseed rape. As to the kind of experiment: Field trial oilseed rape, plant biomass and yield quality/quantity parameters. In kind it is in vivo. Conditions: field conditions; for The Thousand Grain Weight (TGW): Tables 31-33, control 5.64; for Bulk density: control 0.65; for Yield: control 25.49; for Biomass: control 90.00. How it is done: as §2
A further assay has as its system Zymoseptoria tritici. As to the kind of experiment: Field trial winter wheat, efficacy against Zymoseptoria tritici. In kind it is in vivo. The conditions noted are these: field conditions, tank-mix, control (no treatment) 4.68. How it is done: as §1, §2
The next assay deals with winter wheat. The assay can be described thus: Field trial winter wheat, plant biomass and yield parameters. In kind it is in vivo. Conditions: field conditions; for Bulk density: control 0.67; for The Thousand Grain Weight (TGW): control 41.90; for Yield: control 76.50; for Biomass: control 157.50. As for the experimental part:
as §2

The test system of a further assay is Peronospora manshurica. As to the kind of experiment: Field trial soya, efficacy against Peronospora manshurica. In kind it is in vivo. The conditions noted are these: field conditions, tank-mix, control (no treatment) 5.66. How it is done: as §1, §2
Another assay relates to Colletotrichum spp. As to the kind of experiment: Field trial soya, efficacy against Colletotrichum spp. In kind it is in vivo. The conditions noted are these: field conditions, tank-mix, control (no treatment) 4.21.
Another assay relates to soya. The assay can be described thus: Field trial soya, plant biomass and yield parameters. The conditions noted are these: field conditions; for Bulk density: control 0.728; for Yield: control 37.41; for Biomass: control 190.0; for The Thousand Grain Weight (TGW): control 205.3. In kind it is in vivo. How it is done: as §2
In assay [2] the test system is Colletotrichum gloeosporioides. The assay can be described thus: Kirby-Bauer disk diffusion test, Colletotrichum gloeosporioides. The conditions noted are these: Colletotrichum gloeosporioides. How it is done: (§3) The microbiological tests were carried out by applying Kirby-Bauer Disk Diffusion Susceptibility Test Protocol for antimicrobial activity. It is based on the formation of a concentration gradient in the growth medium during the diffusion of the active substance from the antibiogram disc (Kirby-Bauer method).
(§4) The performance of the embodiments of the present inventions and their mixtures enriched with millbase (MFA) was analysed against the appropriate reference substance, i.e., a commercial product containing the analogue active substance with the same concentration. The prepared solutions were applied on the paper antibiograms. Then the soaked antibiograms were placed on the Petri Dishes (dish diameter 90 mm) with the growth medium for fungal pathogens V8. Composition of V8: agar, calcium carbonate and multi-vegetable juice. 3 fragments of mycelium of the tested pathogen (5×5 mm) were transplanted onto the prepared medium. As a result, the zones where the fungal growth was inhibited have been measured and compared respectively with the control sample and the analogue active substance sample.
(§5) Assessment was carried out by determining the infested area of the Petri dish in %. These percentages have been converted into efficacy (W) according to Abbot's formula as follows: W=(1−α/β)×100 • where: • α—corresponds to the mycelium/bacterial growth of each tested sample [%], • β—corresponds to the mycelium/bacterial growth in control sample [%].
(§6) In order to estimate if the combined action effect with the commercial fungicide, the W parameter of the mixture was compared with W parameter for particular commercial fungicide solo. Where W=0 the efficacy of the control sample (whole Petri dish covered with mycelium), and W=100 is when no mycelium growth observed.

For the next assay, the system named is Fusarium oxysporum. As to the kind of experiment: Kirby-Bauer disk diffusion test, Fusarium oxysporum. Conditions: Fusarium oxysporum. As for the experimental part:
as §3, §4, §5, §6

The test system of a further assay is Phytophthora megasperma. The assay can be described thus: Kirby-Bauer disk diffusion test, Phytophthora megasperma. Conditions: Phytophthora megasperma. How it is done: as §3, §4, §5, §6
The test system of another assay is Venturia inaegualis. As to the kind of experiment: Kirby-Bauer disk diffusion test, Venturia inaequalis. The conditions noted are these: Venturia inaegualis. How it is done: as §3, §4, §5, §6
The subject of assay [3] is Alternaria infectoria/alternata. The assay can be described thus: Kirby-Bauer disk diffusion test, Alternaria infectoria/alternata. How it is done:
as §4, §5, §6

The subject of assay [4] is Sclerotinia sclerotiorum. As to the kind of experiment: Kirby-Bauer disk diffusion test, Sclerotinia sclerotiorum. As for the experimental part: as §4, §5, §6
The subject of another assay is Septoria tritici. The assay can be described thus: Kirby-Bauer disk diffusion test, Septoria tritici. How it is done:
as §4, §5, §6

The next assay concerns Septoria nodorum (1291). As to the kind of experiment: Kirby-Bauer disk diffusion test, Septoria nodorum (1291). How it is done:
as §4, §5, §6

For the next assay, the system named is Botrytis cinerea. The assay can be described thus: Kirby-Bauer disk diffusion test, Botrytis cinerea. How it is done:
as §4, §5, §6

Another assay concerns Rhizoctonia solani. As to the kind of experiment: Kirby-Bauer disk diffusion test, Rhizoctonia solani. As for the experimental part: as §4, §5, §6
For the next assay, the system named is Fusarium equiseti. The assay can be described thus: Kirby-Bauer disk diffusion test, Fusarium equiseti. How it is done:
as §4, §5, §6

Another assay deals with Phytophthora cactorum. As to the kind of experiment: Kirby-Bauer disk diffusion test, Phytophthora cactorum. Also noted: % mycelium growth relative to the control: concentration or dose not given beside the values. How it is done:
as §4, §5, §6

The test system of a further assay is Monilinia fructigena. The assay can be described thus: Kirby-Bauer disk diffusion test, Monilinia fructigena. How it is done:
as §4, §5, §6

The test system of a further assay is Verticillium longisporum. As to the kind of experiment: Kirby-Bauer disk diffusion test, Verticillium longisporum. As for the experimental part: as §4, §5, §6
In another assay the test system is Trichoderma harzianum. As to the kind of experiment: Kirby-Bauer disk diffusion test, Trichoderma harzianum. How it is done: as §4, §5, §6

In the assay with Erwinia sp. (control 0.00), `CCCN(CCOc1c(Cl)cc(Cl)cc1Cl)C(=O)n1ccnc1` [Prochloraz (450)] yielded an Efficacy % of 0.00%. Further, the “Erwinia sp. bacterial growth” value with Erwinia sp. (control 3.5 mm) worked out at 3.5 mm. Further, the “Efficacy Sclerotinia sclerotiorum” value in the assay with Sclerotinia sclerotiorum [1] is given as 4.17 scale 0-10. For the same molecule, in the assay with Phoma lingam, the “Efficacy Phoma lingam” value is 3.11 scale 0-10. Also, in the assay with oilseed rape, the “The Thousand Grain Weight (TGW)” value came out at 5.72 g, the Bulk density was determined as 0.68 kg/L, the Yield turned out to be 30.06 dt/ha and the Biomass stood at 125.00 dt/ha. Also, the “Efficacy Zymoseptoria tritici” value in the assay with Zymoseptoria tritici was found to be 3.37 scale 0-10. Besides, in the assay with winter wheat, the Bulk density worked out at 0.65 kg/L, the “The Thousand Grain Weight (TGW)” value stood at 46.90 g, the Yield was 71.51 dt/ha and the Biomass is listed as 157.50 dt/ha. Further, in the assay with Peronospora manshurica, the “Efficacy Peronospora manshurica” value amounted to 3.37 scale 0-10. In addition, the “Efficacy Colletotrichum spp.” value in the assay on Colletotrichum spp. is on record as 2.79 scale 0-10. Further, in the assay with soya, the Bulk density came out at 0.743 kg/L, the Yield came to 41.37 dt/ha, the Biomass worked out at 176.7 dt/ha and the “The Thousand Grain Weight (TGW)” value stood at 211.5 g.

Turning to `N#Cc1c[nH]cc1-c1cccc2c1OC(F)(F)O2` [Fludioxonil (250)], the “% mycelium growth relative to the control” value in [2] (V8 medium) is 81%; with Fusarium oxysporum (V8 medium), 86%; in the assay with Phytophthora megasperma (V8 medium), 100%; in the assay with Venturia inaegualis (V8 medium), 38%; in assay [3] (V8 medium), 0%; with Sclerotinia sclerotiorum [4] (V8 medium), 0%. For the same molecule, the “% mycelium growth relative to the control” value in the assay with Septoria tritici (V8 medium) turned out to be 42%; in the assay on Septoria nodorum (1291) (V8 medium), 72%; with Botrytis cinerea (V8 medium), 0%; in the assay with Rhizoctonia solani (V8 medium) it was 55%; with Fusarium equiseti (V8 medium), 81%; in the assay on Fusarium graminearum (V8 medium), 73%. Further, the “% mycelium growth relative to the control” value came out at 100% with Phytophthora cactorum (V8 medium), 61% with Monilinia fructigena (V8 medium) and 87% in the assay on Verticillium longisporum (V8 medium). Further, the mycelium growth in [2] (V8 medium, control 5.4 cm) turned out to be 4.4 cm; with Fusarium oxysporum (V8 medium, control 8.6 cm), 7.4 cm; in the assay on Phytophthora megasperma (V8 medium, control 5.4 cm (8.6 cm in Table 25)), 5.4 cm; with Venturia inaegualis (V8 medium, control 2.9 cm), 1.1 cm; in assay [3] (V8 medium, control 8.6 cm) it was 0 cm; in the assay with Sclerotinia sclerotiorum [4] (V8 medium, control 8.6 cm), 0 cm. Further, the mycelium growth is given as 0.8 cm with Septoria tritici (V8 medium, control 1.9 cm); 3.9 cm in the assay on Septoria nodorum (1291) (V8 medium, control 5.4 cm); 0 cm in the assay on Botrytis cinerea (V8 medium, control 8.6 cm); 4.7 cm with Rhizoctonia solani (V8 medium, control 8.6 cm); 7 cm in the assay on Fusarium equiseti (V8 medium, control 8.6 cm); 6.3 cm with Fusarium graminearum (V8 medium, control 8.6 cm). The mycelium growth with Phytophthora cactorum (V8 medium, control 5.4 cm) is reported as 5.4 cm; in the assay on Monilinia fructigena (V8 medium, control 5.4 cm), 3.3 cm; in the assay with Verticillium longisporum (V8 medium, control 3.9 cm), 3.4 cm. In addition, the “EFFICACY W (Abbot)” value in [2] (control W=0, no growth W=100) is reported as 19; in the assay with Fusarium oxysporum (control W=0, no growth W=100) it was 14; with Phytophthora megasperma (control W=0, no growth W=100), 0; in the assay on Venturia inaegualis (control W=0, no growth W=100), 62; in assay [3] (control W=0, no growth W=100), 100; in the assay with Sclerotinia sclerotiorum [4] (control W=0, no growth W=100), 100. The “EFFICACY W (Abbot)” value in the assay with Septoria tritici (control W=0, no growth W=100) came to 58; with Septoria nodorum (1291) (control W=0, no growth W=100), 28; in the assay with Botrytis cinerea (control W=0, no growth W=100), 100; in the assay with Rhizoctonia solani (control W=0, no growth W=100), 45; in the assay with Fusarium equiseti (control W=0, no growth W=100) it was 19; with Fusarium graminearum (control W=0, no growth W=100), 27. Moreover, the “EFFICACY W (Abbot)” value is given as 0 in the assay on Phytophthora cactorum (control W=0, no growth W=100); 39 in the assay on Monilinia fructigena (control W=0, no growth W=100); 13 in the assay with Verticillium longisporum (control W=0, no growth W=100).

`CC1(C)CCC(Cc2ccc(Cl)cc2)C1(O)Cn1cncn1` (stereo not drawn) [Metconazole (90)]: the “Efficacy Sclerotinia sclerotiorum” value with Sclerotinia sclerotiorum [1] is 4.11 scale 0-10. For the same molecule, in the assay on Phoma lingam, the “Efficacy Phoma lingam” value was 2.99 scale 0-10. For the same molecule, in the assay on oilseed rape, the “The Thousand Grain Weight (TGW)” value is 6.13 g, the Bulk density is 0.67 kg/L, the Yield is recorded as 33.63 dt/ha and the Biomass turned out to be 152.50 dt/ha. For the same molecule, the “Efficacy Zymoseptoria tritici” value in the assay on Zymoseptoria tritici was found to be 3.11 scale 0-10. Also, in the assay on winter wheat, the Bulk density was 0.67 kg/L, the “The Thousand Grain Weight (TGW)” value is recorded as 46.20 g, the Yield is 78.95 dt/ha and the Biomass amounted to 172.50 dt/ha. In addition, the “Efficacy Peronospora manshurica” value in the assay with Peronospora manshurica came out at 3.13 scale 0-10. The “Efficacy Colletotrichum spp.” value with Colletotrichum spp. is on record as 2.31 scale 0-10. In the assay with soya, the Bulk density amounted to 0.724 kg/L, the Yield is reported as 32.86 dt/ha, the Biomass is reported as 146.7 dt/ha and the “The Thousand Grain Weight (TGW)” value is 207.0 g.

Regarding `COc1cc(C)c(C(=O)c2c(OC)ccc(Br)c2C)c(OC)c1OC` [Metrafenone (150)], the “% mycelium growth relative to the control” value in the assay with Trichoderma harzianum (V8 medium) is listed as 80%. Further, the mycelium growth in the assay with Trichoderma harzianum (V8 medium, control 8.6 cm) was found to be 6.9 cm. In addition, the “EFFICACY W (Abbot)” value in the assay on Trichoderma harzianum (control W=0, no growth W=100) is 20.

The record behind these values is patent US20260344673A1, “A SOLID FORM FOR PREPARATION OF AN AQUEOUS DISPERSION, AQUEOUS DISPERSION, STABLE CONCENTRATE, COMBINED AQUEOUS DISPERSION, AND USES THEREOF” (priority 2022, published 2026).
